The numbers were not newly measured in patent US10188772B2, “Drug delivery medical device” (Micell Technologies, Inc., priority 2012, dated 2019), which cites them from elsewhere.

The target of the series is FKBP12 (Homo sapiens, UniProt P62942).
Sequence of FKBP12 (P62942 whole entry, species assumed): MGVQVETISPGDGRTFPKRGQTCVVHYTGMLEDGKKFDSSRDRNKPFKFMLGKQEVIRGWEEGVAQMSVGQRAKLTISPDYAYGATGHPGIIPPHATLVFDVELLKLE
On to `CO[C@H]1C[C@@H]2CC[C@@H](C)[C@@](O)(O2)C(=O)C(=O)N2CCCC[C@H]2C(=O)O[C@H]([C@H](C)C[C@@H]2CC[C@@H](OCCO)[C@H](OC)C2)CC(=O)[C@H](C)/C=C(\C)[C@@H](O)[C@@H](OC)C(=O)[C@H](C)C[C@H](C)/C=C/C=C/C=C/1C` [Everolimus, 40-O-(2-Hydroxyethyl)rapamycin], for which the FKBP12 binding was 1.8 to 2.6 nM. For `CC[C@@H]1/C=C(\C)C[C@H](C)C[C@H](OC)[C@H]2O[C@@](O)(C(=O)C(=O)N3CCCC[C@H]3C(=O)O[C@H](/C(C)=C/[C@@H]3CC[C@H](Cl)[C@H](OC)C3)[C@H](C)[C@@H](O)CC1=O)[C@H](C)C[C@@H]2OC` [Pimecrolimus], the FKBP12 binding entry is reported as “about 1.2 nM”. `C=CC[C@@H]1/C=C(\C)C[C@H](C)C[C@H](OC)[C@H]2O[C@@](O)(C(=O)C(=O)N3CCCC[C@H]3C(=O)O[C@H](/C(C)=C/[C@@H]3CC[C@@H](O)[C@H](OC)C3)[C@H](C)[C@@H](O)CC1=O)[C@H](C)C[C@@H]2OC` [Tacrolimus]: the FKBP12 binding is 0.2 to 0.4 nM. Regarding `CO[C@H]1C[C@@H]2CC[C@@H](C)[C@@](O)(O2)C(=O)C(=O)N2CCCC[C@H]2C(=O)O[C@H]([C@H](C)C[C@@H]2CC[C@@H](OC(=O)C(C)(CO)CO)[C@H](OC)C2)CC(=O)[C@H](C)/C=C(\C)[C@@H](O)[C@@H](OC)C(=O)[C@H](C)C[C@H](C)/C=C/C=C/C=C/1C` [Temsirolimus, 42-[3-hydroxy-2-(hydroxymethyl)-2-methylpropanoate]rapamycin], the FKBP12 binding entry is “about the same as Sirolimus”. Regarding `CO[C@H]1C[C@@H]2CC[C@@H](C)[C@@](O)(O2)C(=O)C(=O)N2CCCC[C@H]2C(=O)O[C@H]([C@H](C)C[C@@H]2CC[C@H](n3cnnn3)[C@H](OC)C2)CC(=O)[C@H](C)/C=C(\C)[C@@H](O)[C@@H](OC)C(=O)[C@H](C)C[C@H](C)/C=C/C=C/C=C/1C` [Zotarolimus], the FKBP12 binding was 2.0 to 3.2 nM.
